Data from patent US12403090B2, “Oral film compositions and dosage forms having precise active dissolution profiles” (Aquestive Therapeutics, Inc., priority 2018, dated 2025).

Assay: Solubility of clobazam in COSF liquid mix and oral films
Assay type: physicochemical
Details: API or films in 1.5 ml water; wet mass as such
Protocol: An experiment was conducted to assess the solubility of clobazam in the liquid mix (pre-drying) and oral films (COSF). Oral thin films containing 10 mg and 20 mg clobazam were prepared and then dissolved in 1.5 ml water. Two other samples were evaluated—one being the active in water (without the excipients added to the composition for oral films); and second being the liquid mix for the film but tested prior to film forming (i.e., drying).

CN1C(=O)CC(=O)N(c2ccccc2)c2cc(Cl)ccc21 [COSF API 10 mg, clobazam]
% Clobazam Dissolved in sample: 1.576%
Actual Clobazam (mg/ml) in supernatant: 0.11 mg/mL
